Experimental findings from US20250339391A1, “METHODS FOR EFFECTIVE MANAGEMENT OF PAIN” (South Rampart Pharma, Inc., priority 2024, published 2025) are described below.

The data set is described as follows: LC-MS/MS detection of D10-SRP-001 in rat brain (PAG). The following applies: 30 min after IP injection. In kind it is in vivo. As to the method: Deuterated compound D10-SRP-001 was synthesized by Olon Ricerca Bioscience (Concord, OH), and purity was determined to be >99.9% by HPLC. This was used as pure analytical standard for detection of SRP-001 using an LC-MS/MS method. Similarly, pure analytical standard of AM404 (10 ng/mL) obtained from Cayman Chemical (Ann Arbor, MI) was used to characterize the full fragmentation pattern of AM404. […] Thirty min post-injection, the animals were sacrificed (same as in the CFA/von Frey model), their brains harvested, and the midbrain periaqueductal gray (PAG) region excised. SRP-001 or AM404 were extracted from the PAG using a liquid-liquid extraction method using 1:1 MeOH:H2O for LC-MS/MS and were loaded onto a liquid chromatography-tandem mass spectrophotometer for analysis. The mass spectrophotometer was operated in multiple reaction monitoring (MRM) mode using positive ion electrospray. D10-SRP-001 was detected by monitoring the m/z transition 416→186. AM404 was detected by monitoring the m/z transition 396→287.

In the case of `[2H]C([2H])([2H])C([2H])([2H])N(C(=O)c1ccccc1S(=O)(=O)NCC(=O)Nc1ccc(O)cc1)C([2H])([2H])C([2H])([2H])[2H]` [D10-SRP-001], the “detection in the brain” value was “detected in the brain”.
